{
  "source": "patent US10106523B2",
  "about": "“Amide compound” (ASTELLAS PHARMA INC., priority 2014, dated 2018)",
  "key": {"[1]": {"system": "renin activity in rat plasma", "experiment": "Action on renin activity in rat plasma (PRA increase due to EP4 agonist ONO-AE1-437)", "type": "in vivo", "settings": "SD rats, 0.3 mg/kg po; ONO-AE1-437 0.01 mg/kg sc", "protocol": "Test Example 6: Evaluation Test of Action on Renin Activity in Rat Plasma\nSD rats (male, 7-week old) under non-fasting conditions were used for the test. A test compound dissolved in a mixed solution of PEG 400:20% Tween 80:1 mol/L aqueous NaHCO3 solution=1:4:5 was orally administered (po) to the rat at a dose of 0.3 mg/kg (5 mL/kg). After 1 hour, an active metabolite (ONO-AE1-437) of an EP4 agonist ONO-4819 dissolved in physiological saline was subcutaneously administered to the back of the rat at a dose of 0.01 mg/kg (5 mL/kg). After 10 minutes, the rat was decapitated without anesthesia and about 2 mL of blood was collected in a tube containing 3 mg of EDTA.2Na. The blood sample was centrifuged (1000×g, 10 minutes, 4° C.) to separate the plasma. […] The Angiotensin I concentration in both samples was measured by an ELISA method, and a concentration obtained by subtracting a value of the blank reaction from the value of the sample incubated at 37° C. was taken as a renin activity in plasma (plasma renin activity (PRA)). By taking the PRA of the inhibitor rate of the group (n=5) not treated with ONO-AE1-437 as 100% and taking that of the group (n=4) treated with ONO-AE1-437 as 0%, the inhibitory rate of the test compound group (n=5) was calculated."}, "SD rats": {"system": "SD rats", "experiment": "Evaluation on rat gastrointestinal disorder (7-day oral administration, hematology, blood chemistry, histopathology)", "type": "in vivo", "settings": "3 mg/kg po for 7 days", "protocol": "Test Example 10: Evaluation on Rat Gastrointestinal Disorder\nSD rats (male, 7-week old) were used. A test compound dissolved in a mixed solution of PEG 400: 20% Tween 80: 1 mol/L aqueous NaHCO3 solution=1:4:5 was orally administered at a dose of 3 mg/kg (n=5, 5 mL/kg) for 7 days. The aforementioned mixed liquid was orally administered to a group not treated with the test drug (n=5) at a volume of 5 mL/kg for 7 days. Blood was collected under fasting overnight for hematology and blood chemistry tests on the following day after the final administration. After blood collection, the animal which had been euthanized by exsanguination was immediately necropsied, and the stomach, duodenum, jejunum, ileum, cecum, colon, rectum, and liver were excised therefrom. The excised organs were fixed in a 10% neutral buffered formalin solution and used for histopathological evaluation."}, "[2]": {"system": "5/6 nephrectomy rats with chronic renal failure", "experiment": "Effect on renal function of 5/6 nephrectomy (5/6 Nx) rats with chronic renal failure", "type": "in vivo, rat", "settings": "5/6 Nx Wistar rats, 0.2 mg/kg po once per day for 6 weeks", "protocol": "Test Example 8: Test for Investigation of Effect on Renal Function of 5/6 Nephrectomy (5/6 Nx) of Rats with Chronic Renal Failure\nWistar rats (male, 8-Week-old) were used for the test. Two-thirds of the left kidney was removed under pentobarbital anesthesia, and after 1 week, the entire right kidney was nephrectomized (5/6 Nx). After 2 weeks from 5/6 Nx, the protein concentrations in urine samples obtained by urine collection for 24 hours were measured using a Bio-Rad Protein assay kit, and the creatinine concentration in urine was measured using Determiner L CRE (Kyowa Medex Co., Ltd.)). The urinary protein-creatinine ratio (UPCR) was calculated, and a group (n=12) not treated with the test compound and a group (n=12) treated with the test compound were allocated without a bias in UPCR. The test compound suspended in a 0.5% MC solution was orally administered to the group treated with the test compound at a dose of 0.2 mg/kg once per day for 6 weeks (5 mL/kg). […] Urine was collected for 24 hours from the completion of the final administration, and using the calculated UPCR as an indicator, the improvement effect of the test compound on the nephropathy of the rat with chronic renal failure was investigated. The inhibitory rate of UPCR of the group treated with the test compound when the UPCR value of the group not treated with the test compound was taken as 100% was determined."}, "rat EP4 receptor": {"biological_target": "rat EP4 receptor (Rattus norvegicus, UniProt P43114)", "sequence (P43114 whole entry)": "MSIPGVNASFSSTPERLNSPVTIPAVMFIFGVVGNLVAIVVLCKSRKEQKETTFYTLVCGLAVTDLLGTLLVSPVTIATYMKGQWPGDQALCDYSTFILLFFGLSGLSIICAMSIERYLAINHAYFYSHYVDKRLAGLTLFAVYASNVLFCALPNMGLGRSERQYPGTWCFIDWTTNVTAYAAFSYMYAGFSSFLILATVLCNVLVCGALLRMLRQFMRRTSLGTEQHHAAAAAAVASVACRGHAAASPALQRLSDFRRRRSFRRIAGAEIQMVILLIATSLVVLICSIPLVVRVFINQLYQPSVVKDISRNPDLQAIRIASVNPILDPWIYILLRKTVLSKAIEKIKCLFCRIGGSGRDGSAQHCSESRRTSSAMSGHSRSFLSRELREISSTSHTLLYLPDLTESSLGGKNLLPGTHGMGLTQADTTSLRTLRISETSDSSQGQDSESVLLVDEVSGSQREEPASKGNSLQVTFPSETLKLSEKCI", "experiment": "In vivo rat EP4 receptor antagonistic action (plasma TNF-α after LPS and EP4 agonist ONO-AE1-437)", "parameters": "from tissue; host or cells: whole animal (SD rat)", "settings": "SD rats, 0.03 mg/kg po, ONO-AE1-437 0.01 mg/kg sc, LPS 0.01 mg/kg iv", "protocol": "Test Example 5: Evaluation Test of In Vivo Rat EP4 Receptor Antagonistic Action\nSD rats (male, 6-week old) under non-fasting conditions were used for the test. A test compound dissolved in a mixed solution of PEG 400: 20% Tween 80: 1 mol/L aqueous NaHCO3 solution=1:4:5 was orally administered (po) to the rat at a dose of 0.03 mg/kg (5 mL/kg). After 1 hour, an active metabolite (ONO-AE1-437 (CAS No. 256382-23-7)) of an EP4 agonist ONO-4819 dissolved in physiological saline was subcutaneously administered (sc) to the back of the rat at a dose of 0.01 mg/kg (5 mL/kg). After 30 minutes, Lipopolysaccharide (LPS, 0.01 mg/kg) was administered to the tail vein (2 mL/kg), and after 60 minutes, about 0.5 mL of blood was collected in a heparin-containing tube under anesthesia. The blood sample was centrifuged (1000×g, 10 minutes, 4° C.) to separate the plasma. The TNF-α concentration in the rat plasma was measured by an ELISA kit (DuoSet ELISA, R&D Systems). An inhibitory rate of the test compound group (n=5) with respect to the TNF-α production inhibitory action by the EP4 agonist was calculated by taking the TNF-α concentration of the group (n=5) not treated with ONO-AE1-437 as 100% and taking the TNF-α concentration of the group (n=5) treated with ONO-AE1-437 as 0%."}},
  "data": [
    {"molecule": "Cc1nn(Cc2cc3ccccc3cn2)c(C(=O)N[C@@H](C)c2ccc(C(=O)O)cc2)c1Br", "note": "[Compound A, 4-[(1S)-1-({[4-bromo-1-(isoquinolin-3-ylmethyl)-3-methyl-1H-pyrazol-5-yl]carbonyl}amino)ethyl]benzoic acid]", "values": [
      {"measurement": "Inhibition of the increase in PRA (plasma renin activity) due to the EP4 agonist ONO-AE1-437", "setting": "[1]", "value": 102, "unit": "%"},
      {"measurement": "Findings indicating abnormality (hematology, blood chemistry, histopathology of gastrointestinal organs and liver)", "setting": "SD rats", "value": "not observed"},
      {"measurement": "Inhibitory rate of UPCR (urinary protein-creatinine ratio)", "setting": "[2]", "value": 47, "unit": "%"},
      {"measurement": "Inhibition of the TNF-α production inhibitory action of the EP4 agonist ONO-AE1-437", "setting": "rat EP4 receptor", "value": 38, "unit": "%"}
    ]}
  ]
}
